Entries after “also recorded” stand apart in the source; their conditions may differ.
Key:
Type in all cases: cell-based, Zea mays
[1] = system: ZmRAFS1; experiment: ZmRAFS1 gene expression in maize Hi-II callus (northern blot); settings: for ZmRAFS1 mRNA accumulation with myo-inositol or mannitol in the media (FIG. 8A): 2% sucrose plus 0.01% myo-inositol or 7.8% mannitol, control, dehydrated, 4 or 42° C.; for ZmRAFS1 expression, effect of raffinose or galactose: 4% sucrose plus raffinose (0.01-1%) or 0.33% galactose, 42° C. for 1 d (FIG. 8C)
Method: (§1) Maize Hi-II callus cultures were initiated according to Armstrong and Green (1985) from immature embryos isolated from Hi-II maize plants provided by Pioneer. Cultures were incubated in the dark at 25° C. on solid N6 medium containing 2% (w/v) sucrose (Chu et al., 1975) amended with 2 mg/L 2,4-dichlorophenoxyacetic acid, 25 mmol/L L-proline, and 10 μmol/L AgNO3, pH 5.8 (N6S2 medium) and sub-cultured every two weeks onto fresh media. For experimental treatments, approximately 2 g of cells (fresh weight) were added to each 100×15 mm plate. To determine the effect of various sugars and environmental stresses on the expression of ZmGOLS and ZmRAFS genes in maize Hi-II callus cells, callus was cultured on N6 media supplemented with different concentrations of sugars and: a) grown at 25° C. in the dark (control conditions); b) exposed to 42° C. for 24 h (heated); c) exposed to 4° C. for 24 h (chilled); or d) exposed to a current of air at 25° C. in a laminar flow hood for 4 h (dehydrated). To determine the responsiveness of ZmGOLS and ZmRAFS genes to exogenous ABA, calli were grown on media with 1, 10, and 100 μM cis, trans-ABA (Sigma) under control conditions for 1 d prior to harvest and RNA extraction.
(§2) Sucrose and raffinose amounts in N6 media were altered, singly for sucrose or in combination with raffinose, to determine if RAFS substrates or the final product of the coordinate action of GOLS and RAFS influenced ZmGOLS and ZmRAFS gene expression. Because it is not known whether sucrose or raffinose are taken up into Hi-II cells directly or if they are hydrolyzed prior to uptake, glucose, fructose, galactose, and melibiose were also supplied. Myo-inositol (1,2,3,5-trans-4,6-hexahydroxy cyclohexane, Sigma), a GOLS substrate, was added to N6S2 media at amounts from 0.01-1% w/v. To determine if gene expression was regulated by osmotic stress, N6S2 media was amended with 0.1% to 7.8% w/v mannitol. Callus cells were also grown on N6 with combinations of sugars and the myo-inositol isomer, scyllo-inositol. All chemicals were sterilized by filtration and added to autoclaved media cooled to 65° C. just prior to pouring the plates. Hi-II callus cells on these various media were maintained under control conditions or subjected to stress (see above) prior to being harvested for sugar or RNA extraction or moisture content analysis. Cells were transferred to amended N6 media for 8 days, the environmental stress (if any) applied, and the cells harvested.
(§3) Total RNA from seeds, regardless of treatment, was extracted according to Wan and Wilkins (1994). Total RNA (20 μg per lane) from seeds was transferred onto positively charged nylon membranes (Amersham Life Science Inc., Arlington Heights, Ill., USA) in 10×SSC (1×SSC is 150 mM NaCl and 15 mM Na citrate pH 7) overnight, the blot dried and UV cross-linked at 50 mJoules on a GS genelinker UV chamber (Bio-Rad Laboratories, Hercules, Calif., USA). After rinsing the membranes for 5 min in 2×SSC, blots were placed in pre-hybridization solution (50% formamide, 5× Denhardt's solution (Denhardt 1966), 100 μg ml^−1 boiled, sheared salmon sperm DNA, 0.2% SDS, 6×SSC pH 7.0, Sambrook et al. 1989) for 4-6 h at 42° C. Randomly labeled, radioactive cDNA probes ([^32P] dCTP) were hybridized to the blots for at least 12 h at the same temperature as pre-hybridization. The primary wash was done in 2×SSC, 0.1% SDS, RT for 5 min, and repeated but at 65° C. for 30 min. The two final high stringency washes were in 0.2×SSC, 0.1% SDS at 65° C. for 30 min each. The hybridized probe was detected by autoradiography using Kodak X-OMAT X-ray film (Eastman-Kodak Ltd.) or on a phosphoimaging screen using a Phosphorlmager (Molecular Dynamics).

[2] = system: ZmGOLS2; experiment: ZmGOLS2 gene expression in maize Hi-II callus (northern blot, RPA); settings: for ZmGOLS2 mRNA in stressed callus (FIG. 7A): 2% sucrose plus 0.01% myo-inositol or 7.8% mannitol, dehydration 4 h or heat 42° C. 24 h
Method: as §1, §2, §3
The high degree of sequence homology among ZmGOLS genes prompted verification of results from northern blot analysis using RPAs (RPA III, Ambion, Little Rock, Tex., USA). […]

[3] = system: Hi-II maize cells; experiment: Growth of Hi-II maize callus cells on media containing sucrose and raffinose, with or without dehydration stress; settings: for Relative weight gain, Dehydration stressed: dried in a flowhood for 4 h; for Relative weight gain, Dehydration stressed / Relative weight gain, Control: increase in weight relative to initial weight, means of three replicates; for Relative weight gain, Control: no dehydration stress
Method: Table 1. Growth of Hi-II maize cells in culture on media containing sucrose and raffinose. Hi-II cells were weighed, cultured on different media for 4 d, transferred to N6 medium, cultured for another 7 d, and re-weighed. For dehydration stress, Hi-II cells were weighed, cultured on different media for […] , dried in a flowhood for 4 h, subsampled for water content, returned to the initial media for 1 d, transferred to N6 medium, cultured for 7 days, and re-weighed. Growth rates (increase in weight relative to initial weight) and water contents (dry weight basis) are the means of three replicates. Analysis of variance and mean separations were calculated among media within a dehydration stress treatment.
as §1
Samples of Hi-II cells growing on N6S2 were weighed and placed on N6S2, N6S5, or N6S5 supplemented with 0.1% w/v raffinose. Callus was grown for 4 d at 25° C. on these various media. The callus on a particular medium was separated into two equal sub-samples and the fresh weight obtained. A sub-sample of half of the callus cells per plate for each medium was subjected to dehydration stress by removal from the medium and exposure to a current of air in a flow hood for 4 h. The remaining half of the callus cells were not exposed to stress. After 4 h dehydration stress the callus was placed back on its respective medium for an additional 22 h. Previously stressed and non-stressed calli were then transferred to N6S2 for one week. At the end of the week the calli were weighed again to determine how much growth had occurred during the week. The growth of the cells was expressed as the increase in fresh weight after one week of growth on N6S2 relative to the callus fresh weight 7 days earlier (Dennehey et al.; 1994). This experiment was repeated 3 times.

[4] = unstressed cells on N6+2% (w/v) sucrose, 1, 10, 100 μM ABA, 1 d

O[C@H]1[C@H](O)[C@@H](O)[C@H](O)[C@@H](O)[C@H]1O [myo-inositol, 1,2,3,5-trans-4,6-hexahydroxy cyclohexane]
ZmRAFS1 mRNA accumulation with myo-inositol or mannitol in the media (FIG. 8A) [1]: did not elicit greater ZmRAFS1 mRNA accumulation with the exception of cells exposed to heat shock
ZmGOLS2 mRNA in stressed callus (FIG. 7A) [2]: ZmGOLS2 mRNA accumulation
ZmGOLS2 transcription, low myo-inositol ([2]; dehydrated cells, 2% sucrose, 0.01-0.1% w/v): upregulated ZmGOLS2 transcription
ZmGOLS2 transcription, high myo-inositol ([2]; dehydrated cells, 2% sucrose, 1% w/v): repressed ZmGOLS2 transcription below that on 2% sucrose alone

O=C[C@H](O)[C@@H](O)[C@@H](O)[C@H](O)CO [galactose]
ZmRAFS1 expression, effect of raffinose or galactose [1]: as effective as raffinose at repressing ZmRAFS1 expression at equal galactose molarities

OC[C@H]1O[C@H](OC[C@H]2O[C@H](O[C@]3(CO)O[C@H](CO)[C@@H](O)[C@@H]3O)[C@H](O)[C@@H](O)[C@@H]2O)[C@H](O)[C@@H](O)[C@H]1O [raffinose]
ZmRAFS1 expression, effect of raffinose or galactose [1]: may inhibit the expression of ZmRAFS1 upon attaining a sufficient concentration
callus mass accumulation ([3]; 0.1% raffinose in medium with 5% sucrose, unstressed): prevented the detrimental effect of high sucrose on callus mass accumulation
callus growth following dehydration stress ([3]; 0.1% w/v raffinose with 5% sucrose, 4 h dehydration): grew as well as callus that had not been subjected to dehydration; also recorded: capable of alleviating dehydration-induced damage

CC1=CC(=O)CC(C)(C)[C@@]1(O)/C=C/C(C)=C\C(=O)O [ABA, abscisic acid]
ZmRAFS1 gene expression in response to applied ABA [1, 4]: not induced beyond that of 2% sucrose alone
ZmGOLS2 gene expression in response to applied ABA [2, 4]: not responsive to ABA

OC[C@H]1O[C@@](CO)(O[C@H]2O[C@H](CO)[C@@H](O)[C@H](O)[C@H]2O)[C@@H](O)[C@@H]1O [5% sucrose, sucrose]
Relative weight gain, Dehydration stressed [3]: 1.37 ± 0.02 b
Relative weight gain, Control [3]: 1.45 ± 0.04 b

OC[C@H]1O[C@@](CO)(O[C@H]2O[C@H](CO)[C@@H](O)[C@H](O)[C@H]2O)[C@@H](O)[C@@H]1O [2% sucrose, sucrose]
Relative weight gain, Dehydration stressed [3]: 1.35 ± 0.16 b
Relative weight gain, Control [3]: 1.89 ± 0.17 a

OC[C@H]1O[C@@](CO)(O[C@H]2O[C@H](CO)[C@@H](O)[C@H](O)[C@H]2O)[C@@H](O)[C@@H]1O [sucrose]
ZmRAFS1 gene expression, effect of sucrose and its monosaccharides ([1]; heat-stressed callus, 2% (w/v) or greater sucrose (FIG. 8B, 8C)): up-regulated by sucrose

O[C@H]1[C@H](O)[C@@H](O)[C@H](O)[C@@H](O)[C@@H]1O [scyllo-inositol]
ZmGOLS2 expression, low scyllo-inositol with high mannitol ([2]; dehydrated cells, 2% sucrose (FIG. 7C)): did not alter the expression of ZmGOLS2 relative to similar concentrations of myo-inositol and mannitol

OC[C@@H](O)[C@@H](O)[C@H](O)[C@H](O)CO [mannitol]
ZmRAFS1 mRNA accumulation with myo-inositol or mannitol in the media (FIG. 8A) [1]: did not influence ZmRAFS1 gene expression
ZmGOLS2 mRNA in stressed callus (FIG. 7A) [2]: upregulated ZmGOLS2 gene expression when subjected to dehydration but not to heat stress
ZmGOLS2 transcription, low mannitol ([2]; dehydrated cells, 0.1-0.5% w/v): repressed ZmGOLS2 transcription below that present in cells grown on 2% sucrose alone
ZmGOLS2 transcription, very high mannitol ([2]; dehydrated cells, 7.8% w/v): upregulated ZmGOLS2 transcription

Reference: patent US20050055748A1, “Stress-responsive genes, regulatory elements, and methods of use for same” (priority 2003, published 2005)
